Tests used:
[1] = test system: α1β2δ receptors (oocytes injected with α1+β2+δ); type: cell-based, rat α1, rat β2, human δ, expressed in Xenopus laevis oocytes; details: oocytes injected with α1+β2+δ
From the text: Plasmids with inserts encoding GABAA receptor subunit sequence for rat α1 (62), rat β2 (83), rat α2 (62), rat α5 (62), mouse α4 (37), mouse β3 (82), rat β1 (83), rat γ2S (63), human δ (12), and human ε (11) were produced by subcloning each separately into an appropriate cloning vehicle such as PCDM8, pCDNA3.1 or pGHEMHE vectors (Invitrogen, Carlsbad Calif.) using a T7 promoter and standard subcloning techniques (59). Plasmids were linearized with an appropriate restriction enzyme at a site 3′ to the insert and cRNAs were synthesized using T3 or T7 polymerase (mMessage mMachine, Ambion, Tex.). The size of the cRNA was verified and RNA was quantified by ethidium bromide staining after electrophoresis on 1% agarose gels.
The preparation, injection, and maintenance of oocytes were carried out as described previously (78). Oocytes were injected with receptor subunit cRNAs (2 to 20 ng) in the following ratios: α1:β1:γ2S, α1:β2:γ2S and α1:β1:ε1, 1:1:1; α2:β1:γ2S, α5:β1:γ2S, α4:β1:γ2S, and α4:β2:γ2S, 10:1:1; α4:β1:δ, α4:β2:δ, α4:β3δ, 10:1:10; α1:β2:δ, 1:1:10 or 1:0.5:3; α1:β1:δ, 1:1:10 or 1:0.5:3; α2:β1:δ and α2:β2:δ, 1:0.5:3; α1:β1, α1:β2, α2:β1, α2:β2, β2:γ2S and α4δ, 1:1, α4:β1, α4:β2, α4:β3, 10:1, β2δ, 1:10.
Voltage-clamp recording was carried out 1 to 3 days after injection of cRNAs. Electrodes were filled with 3 M KCl and had resistances of 0.4-4 MΩ. Oocytes were positioned in a small Perspex chamber and continuously superfused with a saline solution (100 mM NaCl, 2 mM KCl, 1.8 mM CaCl2, 10 mM HEPES, pH 7.5). Agonists and modulators were both applied in the same saline solution. Oocytes were voltage-clamped at −70 mV and macroscopic currents were recorded with a two-electrode voltage-clamp using a Warner Instruments OC-725 amplifier as described previously (79). Currents were recorded on a chart recorder or by using Axograph on a Macintosh computer.
Other subunits (α1, α2, β1, β2) were tested for co-expression with the δ subunit. […]

[2] = test system: GABAA receptors of acutely isolated CA1 hippocampal pyramidal cells; assay: Whole cell patch clamp, ethanol or THIP effect on GABA-gated current; type: cell-based, rat; details: for potentiation of GABA-gated currents: progesterone-withdrawal model; for potentiation of GABA-gated responses: after progesterone withdrawal
Description: Pyramidal neurons were acutely dissociated from CA1 hippocampus and GABA-gated Cl^− currents analyzed using whole cell patch clamp procedures as previously described (67). Briefly, tissue was digested at 32° C. for 50-60 minutes under 100% O2 in PIPES-buffered saline containing (in mM): NaCl 120, KCl 5, CaCl2 1, MgCl2 1, D-glucose 25, PIPES 20 and trypsin (type XI, sigma) 0.8 mg/ml, pH 7.0. After 1 hour of enzyme-free incubation at room temperature, tissue was dissociated by trituration in 1 ml of 20 mM HEPES-buffered DMEM which was replaced by recording medium after transfer to the recording chamber. GABA-gated currents were recorded at room temperature (20-25° C.) at a holding potential of −50 mV in a bath containing (in mM): NaCl 120, CsCl 5, CaCl2 2, MgCl2 1, TEA Cl 15, 4-aminopyridine 5, HEPES 10 and glucose 25, pH 7.4, 320 mOsm/kg H2O. The pipette solution contained (in mM): N-methyl-D-glucamine chloride 120, Cs4BAPTA 5 and Mg-ATP 5. The ATP regeneration system Tris phosphocreatine (20 mM) and creatine kinase were added to minimize GABA rundown. All drugs were obtained from Sigma Chemical Co, (St. Louis, Mo.), except for BAPTA (Calbiochem, San, Diego, Calif.).
Peak currents were calculated for all drug concentrations as relative to the current gated by 10 μM GABA alone using the equation: ([peak current: GABA+ETOH]−[peak current: GABA alone])/[peak current: GABA alone]. Currents were recorded using an Axopatch 1D amplifier (Axon Instruments) filtered at 2 kHz (four-pole Bessel filter) and detected at 500 Hz (pClamp 5.1).
Following progesterone withdrawal or control conditions, pyramidal cells were acutely isolated from CA1 hippocampus as described (65,64). GABA-gated Cl^− currents were recorded using whole cell patch clamp techniques at a holding potential of −50 mV.

GABAR α4 subunit = assay: Western blot of α4 subunit in hippocampus after steroid and ethanol administration; type: in vivo, rat
Description: Animals were administered steroids using one of two protocols: (i) For the 48 hour steroid administration protocol, animals were injected with 10 mg/kg 3α, 5β THP in oil, i.p., on a daily basis for three days and sacrificed 1-2 hour following the final injection. Controls were injected with oil vehicle. […] At this time, the capsule was removed and the animals were injected with 17 β estradiol (2 μgs/animal) in order to reset their cycle. Animals were sacrificed 24 hours later. […] In all cases, implantation and removal of capsules were performed under halothane anesthesia. […] Therefore, this study employed the 5β isomer of the steroid.
In some groups of animals, either ethanol (0.5 g/kg in saline) or saline vehicle was administered i.p. (3×, every 40 minutes) for the final 2 hours of the respective steroid administration or withdrawal paradigm. The use of multiple injections of low doses of ethanol would approximate ethanol consumption in the human more closely than would a single injection. For the 48 hour steroid administration paradigm, animals received their first ethanol injection immediately after the steroid injection, and subsequent injections at 40 minute intervals. In all cases, animals were sacrificed 40 minutes after the final ethanol injection (2 hours after the first ethanol injection and final steroid injection). All animal protocols were carried out with the approval of the Institutional Animal Care and Use Committee.
Hippocampi removed from steroid or vehicle-treated animals were homogenized, and membranes prepared as previously described (65). Following electrophoresis on 8% SDS polyacrylamide gels, membranes were transferred to a nitrocellulose membrane (Bio-Rad, Hercules, Calif.). α4 subunit levels were detected by evaluating the band density at 67 kDa after probing with a polyclonal antibody (64). Membranes were incubated for 1-2 hours at room temperature with a 1:5000 dilution of horseradish peroxidase-conjugated donkey anti-rabbit IgG (Amersham, Arlington Heights, Ill.), and visualized with enhanced chemiluminescence with varying concentrations of protein in the linear range. Immunoreactive band densities were quantified using a CCD camera (UMAX Scanner) and one-Dscan software, which uses multiple Gaussian fits to achieve accurate band density profiles.

`CCO` [ethanol] was tested, and the “responses to GABA in presence of alcohol, % of control” value [1] was 88-95 % of control, the “GABA-modulatory effects of alcohol” value ([2]; 1 mM alcohol, progesterone withdrawal with α4 expression suppressed) was “prevented” and the “potentiation of GABA-gated currents” value ([2]; 1 mM alcohol) was 81±21%. The “potentiation of GABA-gated responses” value ([2]; 3 mM ethanol with 10 μM GABA) was 75±10%, the “potentiation of GABA-gated currents” value ([2]; 10 mM and greater alcohol) was “not as effective” and the “potentiation of GABA-gated responses” value ([2]; 20 mM ethanol) was “ineffective”. The “effect on GABA responses” value ([2]; 3 or 20 mM ethanol, cells from control animals) was “neither concentration produced an effect”, the α4 expression (GABAR α4 subunit; 2 hour ethanol administration after progesterone withdrawal) was “unchanged from control levels” and the “α4 expression in hippocampus” value (GABAR α4 subunit; ethanol 0.5 g/kg i.p. across final 2 hours of 48 h 3α,5β-THP administration) was “reversed the increase”. For the same molecule, the α4 levels (GABAR α4 subunit; ethanol administered without steroid) was “no significant effect”.

Source: patent US7816074B2, “α4 β2 δGABA-A receptors as a strategy for PMS and alcoholism” (priority 2003, dated 2010)
